Measurements taken from patent US20240336593A1, “Compound Having Antitumor Activity And Use Thereof” (lnnovStoneTherapeutics Limited, priority 2020, published 2024).
pIC50: −log10 of the molar value.

How the values were obtained:
[1] = target: PRMT5 (Homo sapiens (Human), UniProt O14744); test: Inhibitory activity against PRMT5 enzyme by radioisotopic method; type: biochemical; settings: PRMT5 5 nM, [3H]-SAM 0.3 μM, polypeptide substrate GL-27 100 nM, room temperature
Outline: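 PRMT5 (5 nM) preincubated with compound and [3H]-SAM (0.3 μM) 60 min at RT in Tris pH 8.0/Tween-20/DTT, 1% DMSO; biotinylated GL-27 peptide (100 nM) added, 120 min RT, stopped with cold SAM. Peptide captured on streptavidin FlashPlate, CPM counted; IC50 from four-parameter fit of % inhibition.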

[2] = test system: Xenograft models of small cell lung cancer (SCLC), non-small cell lung cancer (NSCLC), acute myeloid leukemia (AML) and non-Hodgkin's lymphoma; settings: cited from earlier work

Chain of PRMT5 (O14744 whole entry): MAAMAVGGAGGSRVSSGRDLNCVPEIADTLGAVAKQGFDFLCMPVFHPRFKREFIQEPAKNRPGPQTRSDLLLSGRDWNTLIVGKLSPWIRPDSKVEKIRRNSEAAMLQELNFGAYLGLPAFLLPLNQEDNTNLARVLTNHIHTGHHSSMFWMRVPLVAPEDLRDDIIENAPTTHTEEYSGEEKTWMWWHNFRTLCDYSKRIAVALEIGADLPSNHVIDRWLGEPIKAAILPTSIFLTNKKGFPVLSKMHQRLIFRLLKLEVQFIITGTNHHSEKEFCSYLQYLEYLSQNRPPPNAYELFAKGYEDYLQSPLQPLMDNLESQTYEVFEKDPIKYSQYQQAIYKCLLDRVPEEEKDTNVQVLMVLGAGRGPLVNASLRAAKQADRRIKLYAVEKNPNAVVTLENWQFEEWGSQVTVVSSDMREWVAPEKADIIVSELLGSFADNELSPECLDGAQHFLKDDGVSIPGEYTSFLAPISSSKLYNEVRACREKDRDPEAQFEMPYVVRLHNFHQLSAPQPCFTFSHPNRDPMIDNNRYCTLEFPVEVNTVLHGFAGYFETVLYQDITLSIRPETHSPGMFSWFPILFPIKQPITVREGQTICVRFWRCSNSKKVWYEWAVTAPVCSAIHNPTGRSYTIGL
Chain of PRMT5 (Q9BQA1 whole entry partner): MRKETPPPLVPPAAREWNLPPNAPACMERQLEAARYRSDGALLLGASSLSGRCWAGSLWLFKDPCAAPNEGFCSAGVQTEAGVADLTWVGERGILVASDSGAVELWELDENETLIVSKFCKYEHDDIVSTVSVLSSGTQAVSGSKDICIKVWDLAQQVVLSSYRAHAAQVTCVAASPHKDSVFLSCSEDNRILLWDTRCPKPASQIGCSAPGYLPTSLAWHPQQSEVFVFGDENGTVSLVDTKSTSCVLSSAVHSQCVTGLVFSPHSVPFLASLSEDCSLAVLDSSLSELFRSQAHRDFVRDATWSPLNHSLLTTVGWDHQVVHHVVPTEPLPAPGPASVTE

| Compound | pIC50 [1] | tumor growth inhibited [2] |
| --- | --- | --- |
| CC(=O)N1CCC(Nc2cc(C(=O)N3CC[C@@H](N4CCc5ccccc5C4)[C@H](O)C3)nc([S+]([O-])C(C)C)n2)CC1 (stereo partly drawn) [Example 157, 1-(4-((6-((3R,4R)-4-(3,4-dihydroisoquinolin-2(1H)-yl)-3-hydroxypiperidine-1-carbonyl)-2-(isopropylsulfinyl)pyrimidin-4-yl)amino)piperidin-1-yl)ethan-1-one] | > 7.00 | – |
| Nc1nc2cc(CC[C@H]3C[C@@H](n4ccc5c(N)ncnc54)[C@H](O)[C@@H]3O)ccc2cc1Br [JNJ-64619178] | – | up to 99% |
